The source of these data is US8163939B2, “Ascorbic acid derivative or salt thereof, production method thereof, and cosmetic” (Seikwa Kasei Company, Limited, priority 2007, dated 2012).

The subject of one series is B16 melanoma 4A5 cell. Nature of the series: Whitening test: theophylline-induced melanine production in B16 melanoma 4A5 cells. The series is classed as cell-based, mouse. Conditions: sample at a concentration of 100 μM or less; theophylline-induced melanine production; 3 days culture; N=4. The procedure, abridged:
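Murine B16 4A5 cells were grown 24 h, then cultured 3 days in D-MEM with 10% FBS, 0.2 mM theophylline and sample. Melanin was dissolved in 2N NaOH at 60° C for 15 min, read at 450 nm against a synthetic-melanin standard and normalised to BCA protein. Suppression % = [1−(A−B)/(C−B)]×100 versus normal and control groups, with samples at ≤100 μM, N=4.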

Series [1] is described as follows: Stability Test 2: 2% aqueous solution, pH7, 50° C., 4 weeks (residual rate, odor, coloration). The series is classed as physicochemical. On the procedure:
(§1) Aqueous solutions (2%) of various test samples were adjusted to pH7 with a dilute sodium hydroxide aqueous solution, and charged into 50 mL screw tubes, and the tubes were sealed and stored at room temperature for 4 weeks. Thereafter, HPLC measurement were performed (using liquid chromatography manufactured by Tosoh Corp.) and the residual rate was obtained based on the peak area. The residual rate, odor(odor change) and degree of coloration were evaluated based on the following methods and standards, and the results are shown in Table 41.
The same test as in Test Example 2 was carried out excepting that the sample was stored at 50° C. for 4 weeks instead of storing at room temperature for 4 weeks.

Series [2] in a line: Moisturizing test: moisturizing effect by water retention force. The following applies: for moisturizing effect (in words): conclusion from Table 43, compared with ascorbic acid. The series is classed as physicochemical. How it is done: A sample shown later was dried, and the dried sample was spread in an amount of about 0.4 g (this weight is represented by W0) on the bottom of a weighing bottle (diameter: 3.6 cm, height excluding lid: 1.8 cm) so as to give uniform thickness. The sample contained in the weighing bottle was allowed to stand still in a constant humidity and constant temperature vessel (ENVIROS KCL-1000, TOKYO RIKAKIKAI CO, LTD) under environments of 25° C. and 65% RH. The weight was measured periodically, waiting until sufficient moisture absorption to attain equilibrium of weight increase (about 48 hours). Thereafter, the sample was transferred to under environments of 25° C. and 20% RH (in sealed vessel containing a saturated CH3COOK aqueous solution filled in the bottom part). From the weight after 24 hours (this weight is represented by W1), the amount of retained water per 1 g of the dried sample was calculated according to the following formula. (W1−W0)/W0
From the water amount thus calculated, the moisturizing effect was judged based on the following judging criterion, and the results are shown in Table 43.
Three compounds: 2,3-di-O-glyceryl ascorbic acid, 2,3-di-O-phenylglyceryl ascorbic acid, and glycerin, and
Six compounds: ascorbic acid, ascorbic acid glucoside, 2-O-glyceryl ascorbic acid, 3-O-glyceryl ascorbic acid, 3-O-butylglyceryl ascorbic acid and 3-O-octylglyceryl ascorbic acid, which were adjusted to pH7 with a dilute sodium hydroxide aqueous solution and concentrated.
◯: 25 mg or more and less than 40 mg
Δ: 10 mg or more and less than 25 mg

Series [3] has as its system Normal human dermal fibroblasts. Nature of the series: Collagen production of human fibroblast 2 (100 μM or 500 μM; 2, 4 and 7 days). The following applies: for collagen production promoting effect over time (in words): 100 μM or 500 μM, culturing 2, 4 and 7 days; for Collagen production amount in comparison with the control group (% value when the control group is 100%): Table 46, 100 μM or 500 μM (not stated which), average ± standard error, N=4. In kind it is cell-based. On the procedure:
Normal human dermal fibroblasts were regulated with a 10% (v/v) fetal bovine serum (manufactured by Roshe Diagnostics)-containing D-MEM so as to give a cell density of 2.5×10^4 cells/well, then, pre-incubation for 24 hours was performed on a 96-well plate. After the medium was removed, a sample regulated with a 5% (v/v) fetal bovine serum-containing D-MEM to a concentration of 100 μM was added to each well, then, cultured for 48 hours under 37° C. and 5% CO2. After completion of culturing, the amount of free collagen was measured using Sircol collagen assay kit (manufactured by Biocolor). The measurement was carried out at N=4.
Free collagen was measured under the same conditions as in Test Example 5 excepting that the concentration of each sample was 100 μM or 500 μM and culturing was carried out for 2 days, 4 days and 7 days. The measurement was carried out at N=4, and the average and standard error, in four test examples, of values of the collagen production amount in comparison with the control group (% value when the control group is 100%) are shown in Tables 46 and 47.

Series [4] shares this test system. Nature of the series: Collagen production of human fibroblast (Sircol collagen assay, 100 μM, 48 hours). The series is classed as cell-based. The following applies: cultured 48 hours; for activity at 100 µM: Homo sapiens, Fibroblast, N=4, read-out: Collagen production promoting effect (collagen production amount, % of control group). The procedure, abridged: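 Dermal fibroblasts pre-cultured 24 h, then exposed 48 h to sample at 100 μM in 5% FBS D-MEM at 37 °C, 5% CO2. Free collagen measured by Sircol assay, N=4, expressed as % of untreated control.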

Series [5] in a line: Stability Test 1: 2% aqueous solution, pH7, room temperature, 4 weeks (residual rate, odor, coloration). The series is classed as physicochemical. On the procedure: as §1
◯: 80% or more and less than 90%
Δ: 60% or more and less than 80%
X: 20% or more and less than 60%
It was evaluated according to the following criterion by 10 panelists.
Based on the evaluation results, classification was conducted as shown below.
◯: total point of 10 panelists is 25 or more
Δ: total point of 10 panelists is 16 to 24
X: total point of 10 panelists is 15 or less
3: almost no change as compared with that immediately after preparation
2: coloration is observed as compared with that immediately after preparation
1: intense coloration is observed as compared with that immediately after preparation

Setting [6] is: storage period 2 weeks, 10 panelists.
[7] abbreviates: storage period 4 weeks, 10 panelists.

Molecules are shown by their SMILES.

On to `O=C1O[C@H]([C@@H](O)CO)C(O)=C1O` [ascorbic acid], for which the “Whitening effect (melanine production suppressing rate)” value (“Whitening effect” for short) in the series with B16 melanoma 4A5 cell is recorded as “± (<20%:±)”. Also, the Residual rate entry in series [1] (storage period 0) is “◯ (◯: 80% or more and less than 90%)”; in series [1] (storage period 2 weeks), “X (X: 20% or more and less than 60%)”; in series [1] (storage period 4 weeks) it was “X (X: 20% or more and less than 60%)”; in series [5] (storage period 0), “⊚ (⊚: 90% or more)”; in series [5] (storage period 2 weeks), “◯ (◯: 80% or more and less than 90%)”; in series [5] (storage period 4 weeks), “X (X: 20% or more and less than 60%)”. In addition, the Coloration entry in series [1] (storage period 0, 10 panelists) is on record as “◯ (◯: total point of 10 panelists is 25 or more)”; in series [1] (setting [6]), “Δ (Δ: total point of 10 panelists is 16 to 24)”; in series [1] (setting [7]), “X (X: total point of 10 panelists is 15 or less)”; in series [5] (storage period 0, 10 panelists), “◯ (◯: total point of 10 panelists is 25 or more)”; in series [5] (setting [6]) it was “Δ (Δ: total point of 10 panelists is 16 to 24)”; in series [5] (setting [7]), “X (X: total point of 10 panelists is 15 or less)”. In addition, the Odor result in series [1] (storage period 0, 10 panelists) is given as “◯ (◯: total point of 10 panelists is 25 or more)”; in series [1] (setting [6]), “Δ (Δ: total point of 10 panelists is 16 to 24)”; in series [1] (setting [7]) it was “X (X: total point of 10 panelists is 15 or less)”; in series [5] (storage period 0, 10 panelists), “◯ (◯: total point of 10 panelists is 25 or more)”; in series [5] (setting [6]), “Δ (Δ: total point of 10 panelists is 16 to 24)”; in series [5] (setting [7]), “X (X: total point of 10 panelists is 15 or less)”. In addition, the “Judgement of moisturizing effect (water amount)” value in series [2] is recorded as “X (X: less than 10 mg)”. Also, the “collagen production promoting effect over time (in words)” value in series [3] is “lowers over time”. The “Collagen production amount in comparison with the control group (% value when the control group is 100%)” value is reported as 252 ± 12% in series [3] (culturing period 2 days), 182 ± 9% in series [3] (culturing period 4 days) and 139 ± 14% in series [3] (culturing period 7 days). Besides, the activity at 100 µM in series [4] was 100 to 200%.

As to `O=C1O[C@H]([C@@H](O)CO)C(O)=C1OCC(O)CO` (some centres unmarked) [Example 3, 2-O-glyceryl ascorbic acid], the “Whitening effect” value in the series with B16 melanoma 4A5 cell is “+ (20 to 40%:+)”. Further, the Residual rate result in series [1] (storage period 0), in series [1] (storage period 2 weeks), in series [1] (storage period 4 weeks), in series [5] (storage period 0), in series [5] (storage period 2 weeks) and in series [5] (storage period 4 weeks) was “⊚ (⊚: 90% or more)” in each case. Moreover, the Coloration result is reported as “◯ (◯: total point of 10 panelists is 25 or more)” in series [1] (storage period 0, 10 panelists); “◯ (◯: total point of 10 panelists is 25 or more)” in series [1] (setting [6]); “◯ (◯: total point of 10 panelists is 25 or more)” in series [1] (setting [7]); “◯ (◯: total point of 10 panelists is 25 or more)” in series [5] (storage period 0, 10 panelists); “◯ (◯: total point of 10 panelists is 25 or more)” in series [5] (setting [6]); “◯ (◯: total point of 10 panelists is 25 or more)” in series [5] (setting [7]). For the same compound, the Odor entry is “◯ (◯: total point of 10 panelists is 25 or more)” in series [1] (storage period 0, 10 panelists); “◯ (◯: total point of 10 panelists is 25 or more)” in series [1] (setting [6]); “◯ (◯: total point of 10 panelists is 25 or more)” in series [1] (setting [7]); “◯ (◯: total point of 10 panelists is 25 or more)” in series [5] (storage period 0, 10 panelists); “◯ (◯: total point of 10 panelists is 25 or more)” in series [5] (setting [6]); “◯ (◯: total point of 10 panelists is 25 or more)” in series [5] (setting [7]). Also, the “moisturizing effect (in words)” value in series [2] is “excellent moisturizing effect by far than ascorbic acid”. In addition, the “Collagen production amount in comparison with the control group (% value when the control group is 100%)” value in series [3] (culturing period 2 days) came out at 226 ± 10%; in series [3] (culturing period 4 days), 193 ± 6%; in series [3] (culturing period 7 days) it was 258 ± 22%. For the same compound, the activity at 100 µM in series [4] lay in the range of 100 to 200%.

Consider `O=C1O[C@H]([C@@H](O)CO)C(O)=C1O[C@H]1O[C@H](CO)[C@@H](O)[C@H](O)[C@H]1O` [ascorbic acid glucoside, reference compound], for which the “Whitening effect” value in the series on B16 melanoma 4A5 cell is recorded as “+ (20 to 40%:+)”. Besides, the “Judgement of moisturizing effect (water amount)” value in series [2] is “⊚ (⊚: 40 mg or more)”. Moreover, the “collagen production promoting effect over time (in words)” value in series [3] is listed as “lowers over time”. Moreover, the “Collagen production amount in comparison with the control group (% value when the control group is 100%)” value worked out at 193 ± 4% in series [3] (culturing period 2 days), 239 ± 2% in series [3] (culturing period 4 days) and 179 ± 14% in series [3] (culturing period 7 days). The “Collagen production promoting effect (collagen production amount, % of control group)” value in series [4] (N=4) is listed as “+ (100 to 200%:+)”.

Consider `O=C1O[C@H]([C@@H](O)CO)C(OCC(O)CO)=C1OCC(O)CO` (some centres unmarked) [Example 4, 2,3-di-O-glyceryl ascorbic acid], for which the “Whitening effect” value in the series with B16 melanoma 4A5 cell is recorded as “+ (20 to 40%:+)”. The Residual rate entry in series [1] (storage period 0), in series [1] (storage period 2 weeks), in series [1] (storage period 4 weeks), in series [5] (storage period 0), in series [5] (storage period 2 weeks) and in series [5] (storage period 4 weeks) was “⊚ (⊚: 90% or more)” each time. Also, the Coloration result in series [1] (storage period 0, 10 panelists) is on record as “◯ (◯: total point of 10 panelists is 25 or more)”; in series [1] (setting [6]) it was “◯ (◯: total point of 10 panelists is 25 or more)”; in series [1] (setting [7]), “◯ (◯: total point of 10 panelists is 25 or more)”; in series [5] (storage period 0, 10 panelists), “◯ (◯: total point of 10 panelists is 25 or more)”; in series [5] (setting [6]), “◯ (◯: total point of 10 panelists is 25 or more)”; in series [5] (setting [7]), “◯ (◯: total point of 10 panelists is 25 or more)”. In addition, the Odor entry in series [1] (storage period 0, 10 panelists) is recorded as “◯ (◯: total point of 10 panelists is 25 or more)”; in series [1] (setting [6]) it was “◯ (◯: total point of 10 panelists is 25 or more)”; in series [1] (setting [7]), “◯ (◯: total point of 10 panelists is 25 or more)”; in series [5] (storage period 0, 10 panelists), “◯ (◯: total point of 10 panelists is 25 or more)”; in series [5] (setting [6]) it was “◯ (◯: total point of 10 panelists is 25 or more)”; in series [5] (setting [7]), “◯ (◯: total point of 10 panelists is 25 or more)”. Moreover, the “moisturizing effect (in words)” value in series [2] is “excellent moisturizing effect by far than ascorbic acid”. Also, the “Collagen production amount in comparison with the control group (% value when the control group is 100%)” value in series [3] (culturing period 2 days) is 161 ± 8%; in series [3] (culturing period 4 days), 171 ± 7%; in series [3] (culturing period 7 days) it was 209 ± 27%. Besides, the activity at 100 µM in series [4] fell in the range of 100 to 200%.
